The target of one series is T1, human MCH-1 receptor (Homo sapiens, UniProt Q99705).
T1 construct: purchased Euroscreen Batch 1138
The series is described as follows: Binding assay for human MCH-1 receptor (radioligand displacement). Conditions: membranes from CHO-K1 cells expressing human MCH-1 receptor; 1.4 nM [3H]-labeled compound; 60 min at 25° C.; Ki from Cheng Prusoff equation; read-out: MCH1 Ki. The method, then:
Evaluation of the affinity of compounds for the human MCH-1 receptor was accomplished using 4-(3,4,5-tritritiumbenzyloxy)-1-(1-(2-(pyrrolidin-1-yl)ethyl)-1H-indazol-5-yl)pyridin-2(1H)-one and membranes prepared from stable CHO-K1 cells expressing the human MCH-1 receptor obtained from Euroscreen (Batch 1138). Cell membrane homogenates (8.92 μg protein) were incubated for 60 min at 25° C. with 1.4 nM of the [^3H]-labeled compound in the absence or presence of the test compound in 50 mM Tris-HCl buffer, pH 7.4. Nonspecific binding was determined in the presence of 50 μM 1-(5-(4-cyanophenyl)bicyclo[3.1.0]hexan-2-yl)-3-(4-fluoro-3-(trifluoromethyl)phenyl)-1-(3-(4-methylpiperazin-1-yl)propyl)urea. Following incubation, the samples were filtered rapidly under vacuum through Skatron 11731 filters, pre-soaked in 0.5% polyethylenimine, and washed with ice-cold 50 mM Tris-HCl buffer, pH 7.4, (wash setting 9,9,0) using a Skatron cell harvester. The filters were counted for radioactivity in a liquid scintillation counter (Tri-Carb 2100TR, Packard) using a scintillation cocktail (Ultima Gold MV, Perkin Elmer).
The results are expressed as a percent inhibition of the control radioligand specific binding. The IC50 value (concentration causing a half-maximal inhibition of control specific binding) and Hill coefficient (nH) were determined by non-linear regression analysis of the competition curve using Hill equation curve fitting. The inhibition constant (Ki) was calculated from the Cheng Prusoff equation: (Ki=IC50/(1+(L/KD)), where L=concentration of radioligand in the assay, and KD=affinity of the radioligand for the receptor.

Counter-ions that a name gives are not always drawn.

T1 sequence (Q99705 whole entry): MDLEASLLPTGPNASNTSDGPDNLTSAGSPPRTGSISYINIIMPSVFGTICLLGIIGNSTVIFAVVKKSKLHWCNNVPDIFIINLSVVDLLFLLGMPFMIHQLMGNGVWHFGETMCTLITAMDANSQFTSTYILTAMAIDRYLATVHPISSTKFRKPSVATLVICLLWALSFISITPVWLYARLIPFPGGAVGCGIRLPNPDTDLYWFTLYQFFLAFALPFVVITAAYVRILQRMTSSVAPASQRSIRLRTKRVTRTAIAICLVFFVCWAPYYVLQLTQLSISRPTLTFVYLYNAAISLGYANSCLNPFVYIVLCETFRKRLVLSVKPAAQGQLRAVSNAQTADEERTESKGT

In the case of `Cn1c2c(c3ccc(N4CCN(CCc5ccc(F)cc5)CC4=O)cc31)CNCC2` [Example 11, 4-(4-Fluorophenethyl)-1-(5-methyl-2,3,4,5-tetrahydro-1H-pyrido[4,3-b]indol-7-yl)piperazin-2-one dihydrochloride], the Ki on human MCH-1 receptor amounted to 7 nM.
In the case of `Cn1c2c(c3ccc(N4CCN(CCc5ccccc5)CC4=O)cc31)CNCC2` [Example 6, 1-(5-Methyl-2,3,4,5-tetrahydro-1H-pyrido[4,3-b]indol-7-yl)-4-phenethylpiperazin-2-one dihydrochloride], on human MCH-1 receptor, the inhibitory constant (Ki) was determined as 11 nM.
`Cn1c2c(c3ccc(N4CCN(CCc5ccccc5)CC4=O)cc31)CCNC2` [Example 2, 1-(9-Methyl-2,3,4,9-tetrahydro-1H-pyrido[3,4-b]indol-7-yl)-4-phenethylpiperazin-2-one hydrochloride]: the Ki at human MCH-1 receptor is 26 nM.
Same read-out and setting: with `Cn1c2c(c3ccc(N4CCN(CCc5ccc(F)cc5)CC4=O)cc31)C(C)(C)NCC2` [Example 16, 4-(4-Fluorophenethyl)-1-(1,1,5-trimethyl-2,3,4,5-tetrahydro-1H-pyrido[4,3-b]indol-7-yl)piperazin-2-one dihydrochloride] the figure was 17 nM.
Compound `CC1Cc2c(c3ccc(N4CCN(CCc5ccc(F)cc5)CC4=O)cc3n2C)CN1.Cl` (single isomer, unassigned; enantiomer a) [Example 15, 1-(3,5-Dimethyl-2,3,4,5-tetrahydro-1H-pyrido[4,3-b]indol-7-yl)-4-(4-fluorophenethyl)piperazin-2-one hydrochloride (Enantiomer A)] gave a melting point of 295 to 300 °C. Besides, at human MCH-1 receptor, the Ki came to 11 nM.
For the compound `CN1CCc2c(n(C)c3cc(N4CCN(CCc5ccccc5)CC4=O)ccc23)C1` [Example 4, 1-(2,9-Dimethyl-2,3,4,9-tetrahydro-1H-pyrido[3,4-b]indol-7-yl)-4-phenethylpiperazin-2-one dihydrochloride], the Ki on human MCH-1 receptor was determined as 21 nM.
Still for that read-out and setting: with `Cn1c2c(c3ccc(N4CCN(CCc5ccc(Cl)cc5)CC4=O)cc31)CNCC2` [Example 14, 4-(4-Chlorophenethyl)-1-(5-methyl-2,3,4,5-tetrahydro-1H-pyrido[4,3-b]indol-7-yl)piperazin-2-one dihydrochloride] the figure was 5.8 nM.
Take `CC1Cc2c(c3ccc(N4CCN(CCc5ccc(Cl)cc5)CC4=O)cc3n2C)CN1` (single isomer, unassigned; enantiomer a) [Example 17, 4-(4-Chlorophenethyl)-1-(3,5-dimethyl-2,3,4,5-tetrahydro-1H-pyrido[4,3-b]indol-7-yl)piperazin-2-one hydrochloride (Enantiomer A)]: the Ki at human MCH-1 receptor was determined as 7.6 nM.
`CC1Cc2c(c3ccc(N4CCN(CCc5ccc(F)cc5)CC4=O)cc3n2C)CN1.Cl` (centres unmarked) [Example 12, 1-(3,5-Dimethyl-2,3,4,5-tetrahydro-1H-pyrido[4,3-b]indol-7-yl)-4-(4-fluorophenethyl)piperazin-2-one hydrochloride] returned a melting point of 280 to 285 °C. On human MCH-1 receptor, the Ki was determined as 9.7 nM.
In the case of `CC(=O)N1CCc2c(c3ccc(N4CCN(CCc5ccccc5)CC4=O)cc3n2C)C1` [Example 10, 1-(2-Acetyl-5-methyl-2,3,4,5-tetrahydro-1H-pyrido[4,3-b]indol-7-yl)-4-phenethylpiperazin-2-one], the Ki on human MCH-1 receptor amounted to 57 nM.
As to `Cn1c2c(c3ccc(N4CCN(CCc5ccccn5)CC4=O)cc31)CCNC2` [Example 3, 1-(9-Methyl-2,3,4,9-tetrahydro-1H-pyrido[3,4-b]indol-7-yl)-4-(2-(pyridin-2-yl)ethyl)piperazin-2-one dihydrochloride], the Ki at human MCH-1 receptor was 43 nM.
Still for that read-out and setting: for `CN1CCc2c(c3ccc(N4CCN(CCc5ccccc5)CC4=O)cc3n2C)C1` [Example 7, 1-(2,5-Dimethyl-2,3,4,5-tetrahydro-1H-pyrido[4,3-b]indol-7-yl)-4-phenethylpiperazin-2-one hydrochloride] the value was 12 nM; for `Cn1c2c(c3ccc(N4CCN(CCc5ccccn5)CC4=O)cc31)CNCC2` [Example 8, 1-(5-Methyl-2,3,4,5-tetrahydro-1H-pyrido[4,3-b]indol-7-yl)-4-(2-(pyridin-2-yl)ethyl)piperazin-2-one dihydrochloride], 123 nM.
In the case of `CC(=O)N1Cc2c(n(C)c3cc(N4CCN(CCc5ccc(Cl)cc5)CC4=O)ccc23)CC1C` (single isomer, unassigned; enantiomer a) [Example 18, 1-(2-Acetyl-3,5-dimethyl-2,3,4,5-tetrahydro-1H-pyrido[4,3-b]indol-7-yl)-4-(4-chlorophenethyl)piperazin-2-one (Enantiomer A)], the inhibition constant Ki at human MCH-1 receptor was found to be 49 nM.
In turn, `CC1Cc2c(c3ccc(N4CCN(CCc5ccc(Cl)cc5)CC4=O)cc3n2C)CN1.Cl` (centres unmarked) [Example 13, 4-(4-Chlorophenethyl)-1-(3,5-dimethyl-2,3,4,5-tetrahydro-1H-pyrido[4,3-b]indol-7-yl)piperazin-2-one hydrochloride] came in with a melting point of 294 to 300 °C. Besides, at human MCH-1 receptor, the Ki worked out at 5.3 nM.
Take `Cn1c2c(c3ccc(N4CCN(c5ccc(C(F)(F)F)cn5)CC4=O)cc31)CNCC2` [Example 5, 1-(5-Methyl-2,3,4,5-tetrahydro-1H-pyrido[4,3-b]indol-7-yl)-4-(5-(trifluoromethyl)pyridin-2-yl)piperazin-2-one dihydrochloride]: at human MCH-1 receptor, the Ki came out at 534 nM.
Same read-out and setting: with `O=C1CN(CCc2ccccc2)CCN1c1ccc2c3c([nH]c2c1)CCNC3` [Example 9, 4-Phenethyl-1-(2,3,4,5-tetrahydro-1H-pyrido[4,3-b]indol-7-yl)piperazin-2-one dihydrochloride] the figure was 17 nM.

The values above are taken from patent publication US8697700B2, “Piperazinone-substituted tetrahydro-carboline MCH-1 antagonists, methods of making, and uses thereof” (Albany Molecular Research, Inc., priority 2010, dated 2014).
